According to the NIST ThermoML archive (doi:10.1021/acs.jced.6b00350):
Values joined by “and” are separate entries in the source; they are usually repeats but may differ in a detail not shown here. Identical values can stand only once.

Conditions: Liquid, Hot wire method

FC(F)CC(F)(F)F [1,1,1,3,3-pentafluoropropane]
Conditions	thermal conductivity
242.09 K, 15292 kPa	0.1107 W/m/K
242.09 K, 33385 kPa	0.1154 W/m/K
242.09 K, 46702 kPa	0.1187 W/m/K
242.09 K, 46703 kPa	0.1195 W/m/K
242.1 K, 15296 kPa	0.1107 W/m/K
242.1 K, 21026 kPa	0.1124 W/m/K
242.1 K, 21045 kPa	0.1126 W/m/K
242.1 K, 33384 kPa	0.1155 W/m/K
242.1 K, 53712 kPa	0.1203 W/m/K
242.11 K, 9885 kPa	0.1091 W/m/K
242.11 K, 9889 kPa	0.1086 W/m/K
242.11 K, 26987 kPa	0.1139 W/m/K
242.11 K, 39778 kPa	0.1171 W/m/K
242.12 K, 26965 kPa	0.1139 W/m/K
242.12 K, 39775 kPa	0.1171 W/m/K
242.12 K, 53701 kPa	0.1203 W/m/K
242.12 K, 61286 kPa	0.1221 W/m/K
242.13 K, 61278 kPa	0.1219 W/m/K
242.14 K, 68636 kPa	0.1235 W/m/K
242.14 K, 68676 kPa	0.1235 W/m/K
242.19 K, 312 kPa	0.1058 W/m/K and 0.1064 W/m/K
242.19 K, 4998 kPa	0.1075 W/m/K
242.19 K, 5009 kPa	0.1078 W/m/K
242.51 K, 46692 kPa	0.1189 W/m/K
242.52 K, 46700 kPa	0.1191 W/m/K
242.54 K, 33390 kPa	0.1155 W/m/K
242.54 K, 33403 kPa	0.1154 W/m/K
242.54 K, 53700 kPa	0.1204 W/m/K
242.54 K, 53711 kPa	0.1205 W/m/K
242.54 K, 61277 kPa	0.1221 W/m/K
242.55 K, 15291 kPa	0.1107 W/m/K
242.55 K, 21035 kPa	0.1123 W/m/K
242.55 K, 21038 kPa	0.1121 W/m/K
242.55 K, 39775 kPa	0.117 W/m/K
242.55 K, 39776 kPa	0.1173 W/m/K
242.55 K, 61245 kPa	0.122 W/m/K
242.55 K, 68688 kPa	0.1238 W/m/K
242.56 K, 26980 kPa	0.1136 W/m/K
242.56 K, 26983 kPa	0.114 W/m/K
242.56 K, 68673 kPa	0.1236 W/m/K
242.57 K, 9883 kPa	0.109 W/m/K
242.58 K, 9889 kPa	0.1092 W/m/K
242.65 K, 5012 kPa	0.1074 W/m/K
242.66 K, 307 kPa	0.1056 W/m/K
242.66 K, 5012 kPa	0.1074 W/m/K
242.67 K, 311 kPa	0.1059 W/m/K
242.99 K, 46699 kPa	0.1186 W/m/K
242.99 K, 46703 kPa	0.1187 W/m/K
242.99 K, 53703 kPa	0.1204 W/m/K
242.99 K, 53705 kPa	0.1205 W/m/K
243 K, 61280 kPa	0.122 W/m/K
243.01 K, 33387 kPa	0.1153 W/m/K
243.01 K, 61272 kPa	0.122 W/m/K
243.01 K, 68624 kPa	0.1235 W/m/K
243.01 K, 68665 kPa	0.1235 W/m/K
243.02 K, 33391 kPa	0.1157 W/m/K
243.02 K, 39783 kPa	0.117 W/m/K
243.03 K, 39791 kPa	0.1173 W/m/K
243.04 K, 15285 kPa	0.1108 W/m/K
243.04 K, 21046 kPa	0.1119 W/m/K
243.04 K, 26979 kPa	0.1139 W/m/K
243.05 K, 21037 kPa	0.1122 W/m/K
243.05 K, 26975 kPa	0.1137 W/m/K
243.06 K, 15300 kPa	0.1105 W/m/K
243.07 K, 9881 kPa	0.1091 W/m/K
243.07 K, 9885 kPa	0.1094 W/m/K
243.16 K, 5024 kPa	0.1074 W/m/K
243.17 K, 305 kPa	0.1059 W/m/K
243.17 K, 5015 kPa	0.1075 W/m/K
243.18 K, 306 kPa	0.1061 W/m/K
261.13 K, 36952 kPa	0.1131 W/m/K
261.13 K, 36968 kPa	0.1135 W/m/K
261.17 K, 4289 kPa	0.1031 W/m/K
261.17 K, 4298 kPa	0.1027 W/m/K
261.17 K, 8849 kPa	0.103 W/m/K
261.19 K, 14126 kPa	0.1062 W/m/K
261.2 K, 14118 kPa	0.106 W/m/K
261.21 K, 254 kPa	0.1005 W/m/K
261.21 K, 260 kPa	0.1005 W/m/K
261.21 K, 25237 kPa	0.1087 W/m/K
261.22 K, 25223 kPa	0.1081 W/m/K
261.23 K, 31202 kPa	0.1113 W/m/K
261.23 K, 31204 kPa	0.1116 W/m/K
261.52 K, 43978 kPa	0.1147 W/m/K
261.55 K, 51260 kPa	0.1154 W/m/K
261.55 K, 51262 kPa	0.1153 W/m/K
261.56 K, 8838 kPa	0.1026 W/m/K
261.57 K, 8847 kPa	0.1029 W/m/K
261.57 K, 58812 kPa	0.1174 W/m/K
261.58 K, 14132 kPa	0.1051 W/m/K
261.58 K, 58797 kPa	0.1178 W/m/K
261.6 K, 25212 kPa	0.1084 W/m/K
261.6 K, 31216 kPa	0.1112 W/m/K
261.61 K, 256 kPa	0.09949 W/m/K
261.61 K, 263 kPa	0.09978 W/m/K
261.61 K, 19564 kPa	0.1066 W/m/K
261.61 K, 68826 kPa	0.1202 W/m/K
261.61 K, 68837 kPa	0.1206 W/m/K
261.62 K, 19569 kPa	0.107 W/m/K
261.63 K, 68933 kPa	0.1198 W/m/K
261.64 K, 68930 kPa	0.1197 W/m/K
261.9 K, 36964 kPa	0.1125 W/m/K
261.92 K, 43962 kPa	0.1136 W/m/K
261.93 K, 43919 kPa	0.1146 W/m/K
261.94 K, 51257 kPa	0.1157 W/m/K
261.95 K, 51262 kPa	0.1157 W/m/K
261.96 K, 58819 kPa	0.1174 W/m/K
261.96 K, 58829 kPa	0.1179 W/m/K
261.99 K, 68802 kPa	0.1199 W/m/K
261.99 K, 68824 kPa	0.1198 W/m/K
262 K, 8855 kPa	0.1037 W/m/K
262 K, 8858 kPa	0.1032 W/m/K
262 K, 14134 kPa	0.105 W/m/K
262.01 K, 4294 kPa	0.1017 W/m/K
262.01 K, 4301 kPa	0.1014 W/m/K
262.01 K, 14121 kPa	0.1049 W/m/K
262.01 K, 25254 kPa	0.1088 W/m/K
262.01 K, 25264 kPa	0.1087 W/m/K
262.01 K, 31199 kPa	0.1102 W/m/K and 0.1104 W/m/K
262.01 K, 68921 kPa	0.1199 W/m/K
262.02 K, 68914 kPa	0.1199 W/m/K
262.04 K, 19538 kPa	0.1069 W/m/K
262.04 K, 19563 kPa	0.1063 W/m/K
262.06 K, 260 kPa	0.1002 W/m/K
262.06 K, 263 kPa	0.1001 W/m/K
262.33 K, 36929 kPa	0.1119 W/m/K
262.35 K, 36937 kPa	0.1119 W/m/K
262.36 K, 43961 kPa	0.1135 W/m/K
262.36 K, 43965 kPa	0.1138 W/m/K
262.37 K, 51242 kPa	0.1157 W/m/K
262.38 K, 51253 kPa	0.1155 W/m/K
262.39 K, 58814 kPa	0.1181 W/m/K
262.39 K, 58816 kPa	0.1176 W/m/K
262.4 K, 68835 kPa	0.1199 W/m/K
262.41 K, 68836 kPa	0.1198 W/m/K
262.43 K, 68875 kPa	0.1199 W/m/K
262.43 K, 68907 kPa	0.1196 W/m/K
262.46 K, 8826 kPa	0.1033 W/m/K
262.46 K, 25272 kPa	0.1083 W/m/K
